Results taken from patent US20250230193A1, “CYCLIC COMPOUND HAVING SELECTIVE KRAS INHIBITORY EFFECT ON HRAS AND NRAS” (CHUGAI SEIYAKU KABUSHIKI KAISHA, priority 2022, published 2025).
Where a SMILES comes first, the peptide text is derived from it. Bridges are numbered along the chain shown (N, C = ends). [ ]: non-standard residue; d: D form. The star is where a group is joined. hPhe(3,5-F2-4-CF3) = N[C@@H](CCc1cc(F)c(C(F)(F)F)c(F)c1)C(=O)O; hPhe(3-Cl-4-CF3) = N[C@@H](CCc1ccc(C(F)(F)F)c(Cl)c1)C(=O)O; NPrPhe(4-CF3) = CCCN[C@@H](Cc1ccc(C(F)(F)F)cc1)C(=O)O; hPhe(3,4-Cl2) = N[C@@H](CCc1ccc(Cl)c(Cl)c1)C(=O)O; NMeGly(cPent) = CN[C@H](C(=O)O)C1CCCC1; Pro(4,4-F2) = O=C(O)[C@@H]1CC(F)(F)CN1; Nva(3-Et) = CCC(CC)[C@H](N)C(=O)O; NMeD = CN[C@@H](CC(=O)O)C(=O)O; NMeL = CN[C@@H](CC(C)C)C(=O)O; Morpholide = C1CN(*)CCO1; Ac5c = NC1(C(=O)O)CCCC1; Aze = O=C(O)[C@@H]1CCN1; Ac4c = NC1(C(=O)O)CCC1; NPrGly = CCCNCC(=O)O; Sar = CNCC(=O)O

What was measured:
[1] = target: GDP-bound NRAS wild-type protein (Homo sapiens, UniProt P01111); test: Binding to NRAS by surface plasmon resonance (SPR), Single Cycle Kinetics; settings: SPR; for NRAS/KRAS (ratio of KD value for NRAS to KD value for KRAS) / NRAS/KRAS (ratio of KD value with respect to NRAS to KD value with respect to KRAS): GDP-bound NRAS wild-type vs GDP-bound KRAS wild-type
Chain of GDP-bound NRAS wild-type protein (P01111 whole entry): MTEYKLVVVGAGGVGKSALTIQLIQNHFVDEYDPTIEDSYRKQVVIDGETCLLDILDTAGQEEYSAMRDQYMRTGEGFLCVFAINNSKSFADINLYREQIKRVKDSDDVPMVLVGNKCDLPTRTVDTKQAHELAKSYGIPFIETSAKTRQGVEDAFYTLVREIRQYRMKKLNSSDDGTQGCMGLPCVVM

[2] = target: GDP-bound HRAS wild-type protein (Homo sapiens, UniProt P01112); test: Binding to HRAS by surface plasmon resonance (SPR), Single Cycle Kinetics; settings: SPR; for HRAS/KRAS (ratio of KD value for HRAS to KD value for KRAS) / HRAS/KRAS (ratio of KD value with respect to HRAS to KD value with respect to KRAS): GDP-bound HRAS wild-type vs GDP-bound KRAS wild-type
Chain of GDP-bound HRAS wild-type protein (P01112 whole entry): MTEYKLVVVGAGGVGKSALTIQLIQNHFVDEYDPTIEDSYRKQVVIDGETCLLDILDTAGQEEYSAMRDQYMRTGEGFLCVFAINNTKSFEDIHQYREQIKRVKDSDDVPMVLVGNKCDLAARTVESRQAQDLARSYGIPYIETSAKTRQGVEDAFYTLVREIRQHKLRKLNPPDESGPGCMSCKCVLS

Row | Compound | NRAS/KRAS (ratio of KD value for NRAS to KD value for KRAS) ([1]; KD ratio) | HRAS/KRAS (ratio of KD value for HRAS to KD value for KRAS) ([2]; KD ratio) | NRAS/KRAS (ratio of KD for GDP-bound NRAS wild-type to KD for KRAS) ([1]; KD ratio NRAS/KRAS) | HRAS/KRAS (ratio of KD for GDP-bound HRAS wild-type to KD for KRAS) ([2]; KD ratio HRAS/KRAS) | also measured
1 | CCC[C@H]1C(=O)N[C@@H]([C@@H](C)CC)C(=O)N(C)CC(=O)N(C)[C@H]2C/C=C\CCN(C2=O)[C@@H](Cc2ccc(C)cc2)C(=O)N(C)CC(=O)N[C@@H](CCc2cc(F)c(C(F)(F)F)c(F)c2)C(=O)N2C[C@H](OCC)C[C@H]2C(=O)N(C)C2(CCC2)C(=O)N(C)[C@@H](C2CCCC2)C(=O)N(C)[C@H](C(=O)N(C)C)CC(=O)N1C [PP1793] | A (a compound having 10 or more and less than 20 is denoted as A) | B (a compound having 3 or more and less than 10 is denoted as B) | – | – | –
2 | CCCN1C(=O)[C@@H]2CCN2C(=O)CN(C)C(=O)[C@H]([C@@H](C)CC)NC(=O)[C@H](CC(C)C)N(C)C(=O)C[C@@H](C(=O)N2CCOCC2)NC(=O)[C@H](C2CCCC2)N(C)C(=O)C2(CCC2)NC(=O)[C@@H]2CCCN2C(=O)[C@H](CCc2ccc(C(F)(F)F)c(Cl)c2)NC(=O)CN(C)C(=O)[C@@H]1Cc1ccc(C(F)(F)F)cc1 [PP0350] ([NMeL]I[Sar][Aze][NPrPhe(4-CF3)][Sar][hPhe(3-Cl-4-CF3)]P[Ac4c][NMeGly(cPent)]D-Morpholide; lactam N-11) | – | – | C (A compound having a KD ratio of 0.1 or more and less than 3 is denoted as C) | B (a compound having 3 or more and less than 10 is denoted as B) | –
3 | CCCN1C(=O)CN(C)C(=O)[C@@H]2CCN2C(=O)[C@H](C(CC)CC)NC(=O)[C@H](CC(C)C)N(C)C(=O)C[C@@H](C(=O)N2CCOCC2)N(C)C(=O)[C@H](C2CCCC2)N(C)C(=O)C2(CCCC2)NC(=O)[C@@H]2CCCN2C(=O)[C@H](CCc2cc(F)c(C(F)(F)F)c(F)c2)NC(=O)CN(C)C(=O)[C@@H]1Cc1ccc(C(F)(F)F)cc1 [PP0785] ([NMeL][Nva(3-Et)][Aze][Sar][NPrPhe(4-CF3)][Sar][hPhe(3,5-F2-4-CF3)]P[Ac5c][NMeGly(cPent)][NMeD]-Morpholide; lactam N-11) | – | – | – | – | NRAS/KRAS (ratio of KD value with respect to GDP-bound NRAS wild-type protein to KD value with respect to KRAS) ([1]; KD ratio NRAS/KRAS): B (a compound having 3 or more and less than 10 is denoted as B); HRAS/KRAS (ratio of KD value with respect to GDP-bound HRAS wild-type protein to KD value with respect to KRAS) ([2]; KD ratio HRAS/KRAS): B (a compound having 3 or more and less than 10 is denoted as B)
4 | CCO[C@@H]1C[C@H]2C(=O)NC3(CC(C)(C)C3)C(=O)N(C)[C@@H](C(CC)CC)C(=O)N(C)[C@H](C(=O)N(C)C)CC(=O)N(C)[C@@H](CC3CC3)C(=O)N[C@@H]([C@@H](C)CC)C(=O)N(C)CC(=O)N(C)[C@H]3C/C=C\CCN(C3=O)[C@@H](CC3CCC(F)(F)CC3)C(=O)N(C)CC(=O)N[C@@H](CCc3ccc(C(F)(F)F)c(Cl)c3)C(=O)N2C1 [PP2495] | – | – | – | – | NRAS/KRAS (ratio of KD value with respect to NRAS to KD value with respect to KRAS) [1]: A (a compound having 10 or more and less than 20 is denoted as A); HRAS/KRAS (ratio of KD value with respect to HRAS to KD value with respect to KRAS) [2]: A (a compound having 10 or more and less than 20 is denoted as A)
5 | CCCN1C(=O)CN(C)C(=O)CN(C)C(=O)[C@H]([C@@H](C)CC)NC(=O)[C@H](CC(C)C)N(C)C(=O)C[C@@H](C(=O)N2CCOCC2)N(C)C(=O)[C@H](C2CCCC2)N(C)C(=O)C2(CCCC2)NC(=O)[C@@H]2CCCN2C(=O)[C@H](CCc2ccc(Cl)c(Cl)c2)NC(=O)CN(C)C(=O)[C@@H]1Cc1ccc(C(F)(F)F)cc1 [PP0232] ([NMeL]I[Sar][Sar][NPrPhe(4-CF3)][Sar][hPhe(3,4-Cl2)]P[Ac5c][NMeGly(cPent)][NMeD]-Morpholide; lactam N-11) | – | – | B (a compound having 3 or more and less than 10 is denoted as B) | B (a compound having 3 or more and less than 10 is denoted as B) | –
6 | CCC[C@H]1C(=O)N[C@@H]([C@@H](C)CC)C(=O)N(C)CC(=O)N(C)[C@H]2C/C=C\CCN(C2=O)[C@@H](Cc2ccc(C)cc2)C(=O)N(C)CC(=O)N[C@@H](CCc2cc(F)c(C(F)(F)F)c(F)c2)C(=O)N2C[C@H](C)C[C@H]2C(=O)NC2(CCC2)C(=O)N(C)[C@@H](C2CCCC2)C(=O)N(C)[C@H](C(=O)N(C)CC)CC(=O)N1C [PP1862] | A (a compound having 10 or more and less than 20 is denoted as A) | A (a compound having 10 or more and less than 20 is denoted as A) | – | – | –
7 | CC[C@H](C)[C@@H]1NC(=O)[C@H](CC(C)C)N(C)C(=O)C[C@@H](C(=O)N2CCOCC2)N(C)C(=O)[C@H](C2CCCC2)N(C)C(=O)C2(CCC2)NC(=O)[C@@H]2C[C@@H](OCC3CC3)CN2C(=O)[C@H](CCc2cc(F)c(C(F)(F)F)c(F)c2)NC(=O)CN(C)C(=O)[C@H](Cc2ccc(C(F)(F)F)cc2)N2CCCCC[C@@H](C2=O)N(C)C(=O)CN(C)C1=O [PP1005] | – | – | – | – | NRAS/KRAS (ratio of KD value with respect to NRAS to KD value with respect to KRAS) ([1]; KD ratio): A (a compound having 10 or more and less than 20 is denoted as A); HRAS/KRAS (ratio of KD value with respect to HRAS to KD value with respect to KRAS) ([2]; KD ratio): A (a compound having 10 or more and less than 20 is denoted as A)
8 | CCCN1CC(=O)N(C)CC(=O)N(CCC)[C@@H](Cc2ccc(C(F)(F)F)cc2)C(=O)N(C)CC(=O)N[C@@H](CCc2ccc(C(F)(F)F)c(Cl)c2)C(=O)N2CCC[C@H]2C(=O)NC2(CCCC2)C(=O)N(C)[C@@H](C2CCCC2)C(=O)N(C)[C@H](C(=O)N2CCOCC2)CC(=O)N(C)[C@@H](CC(C)C)C(=O)N[C@@H]([C@@H](C)CC)C1=O [PP0253] ([NMeL]I[NPrGly][Sar][NPrPhe(4-CF3)][Sar][hPhe(3-Cl-4-CF3)]P[Ac5c][NMeGly(cPent)][NMeD]-Morpholide; lactam N-11) | – | – | B (a compound having 3 or more and less than 10 is denoted as B) | B (a compound having 3 or more and less than 10 is denoted as B) | –
9 | CCCN(C)C(=O)[C@@H]1CC(=O)N(C)[C@@H](C(C)C)C(=O)N[C@@H]([C@@H](C)CC)C(=O)N(C)CC(=O)N(C)[C@H]2C/C=C\CCN(C2=O)[C@@H](Cc2ccc(C(F)(F)F)cc2)C(=O)N(C)CC(=O)N[C@@H](CCc2cc(F)c(C(F)(F)F)c(F)c2)C(=O)N2C[C@H](OCC)C[C@H]2C(=O)NC2(CCC2)C(=O)N(C)[C@@H](C2CCCC2)C(=O)N1C [PP1992] | AA (a compound having 20 or more is denoted as AA) | B (a compound having 3 or more and less than 10 is denoted as B) | – | – | –
10 | CCCN1C(=O)CN(C)C(=O)CN(C)C(=O)[C@H]([C@@H](C)CC)NC(=O)[C@H](CC(C)C)N(C)C(=O)C[C@@H](C(=O)N2CCOCC2)N(C)C(=O)[C@H](C2CCCC2)N(C)C(=O)C2(CCCC2)NC(=O)[C@@H]2CC(F)(F)CN2C(=O)[C@H](CCc2ccc(C(F)(F)F)c(Cl)c2)NC(=O)CN(C)C(=O)[C@@H]1Cc1ccc(C(F)(F)F)cc1 [PP0195] ([NMeL]I[Sar][Sar][NPrPhe(4-CF3)][Sar][hPhe(3-Cl-4-CF3)][Pro(4,4-F2)][Ac5c][NMeGly(cPent)][NMeD]-Morpholide; lactam N-11) | – | – | B (a compound having 3 or more and less than 10 is denoted as B) | C (A compound having a KD ratio of 0.1 or more and less than 3 is denoted as C) | –
